Laboratory results published in patent publication KR20200032170A, “편두통 및 군발성 두통의 치료를 위한 졸미트립탄의 치료적 농도를 신속하게 달성하는 방법” (조사노 파마 코포레이션, priority 2017, dated 2019).
Like-named read-outs stand apart in the source and are kept apart here.

What was measured:
[1] = cited from earlier work
migraine (편두통) = conditions: cited from earlier work; for pain freedom at 2 h / pain relief at 2 h: lowest oral dose; for pain freedom: nasal zolmitriptan
Zolmitriptan pKa = format: physicochemical

CNCCc1c[nH]c2ccc(C[C@H]3COC(=O)N3)cc12 [N-데스메틸 졸미트립탄]
metabolite concentration relative to zolmitriptan concentration ([1]; in vivo): 2/3

CNS(=O)(=O)CCc1ccc2[nH]cc(C3CCN(C)CC3)c2c1 [나라트립탄]
pain freedom at 2 h (migraine (편두통)): 18% | pain relief at 2 h (migraine (편두통)): 49%

CNS(=O)(=O)Cc1ccc2[nH]cc(CCN(C)C)c2c1 [수마트립탄]
Tmax ([1]; oral tablet): ~2 h | oral bioavailability ([1]; oral, as succinate): ~15% | onset of action (migraine (편두통); injected): ≤ 10 min

CN(C)CCc1c[nH]c2ccc(C[C@H]3COC(=O)N3)cc12 [졸미트립탄]
pKa (weak base) (Zolmitriptan pKa): 9.6 | Tmax ([1]; nasal administration): ~1.5 h | pain freedom at 2 h (migraine (편두통)): 29% | pain relief at 2 h (migraine (편두통)): 62% | pain freedom (migraine (편두통); 1 h): ~10% | pain freedom (migraine (편두통); 2 h): < 25% | pain freedom (migraine (편두통); 4 h): < 40% | efficacy and tolerability (in words) (migraine (편두통); placebo-controlled clinical trials): 효과적이고 우수한 내약성을 갖는 것으로 보여졌다
